Assay results taken from PMC10731644, “Toward ^68Ga and ^64Cu Positron Emission Tomography Probes: Is H2dedpa-N,N′-pram the Missing Link for dedpa Conjugation?” (Inorganic Chemistry, 2023).
Like-named read-outs stand apart in the source and are kept apart here. Marks after values point to notes of the source that are not given here.

Key:
[1] = cited from earlier work
[2] = cited from earlier work; for pGa: [L] = 10 μM, [M] = 1 μM, pH = 7.4
[3] = Complex formation equilibria with Cu(II) (potentiometric–spectrophotometric and in-batch acidic UV titrations); format: physicochemical; conditions: literature chelators, no reference given for the value; [L] = 10 μM, [M] = 1 μM, pH = 7.4
Experimental: Protonation constants and metal stability constants were determined through a multitechnique approach. Combined potentiometric–spectrophotometric titrations were carried out using a Metrohm Titrando 809 equipped with a Ross combined electrode and a Metrohm Dosino 800. The glass cell containing the solutions to be titrated was maintained at a constant temperature, 25 °C, and connected with an inlet–outlet tube for nitrogen gas (purified through a 10% NaOH solution) to exclude CO2 prior to and during the titration. Daily electrode calibrations were carried out at proton ion concentration, and the results were analyzed with the Gran[41] procedure to obtain the standard potential (E°) and the ionic product of water pKw at T = 25 °C and I = 0.16 M NaCl. […] The exact amount of acid present was determined by the titration of equimolar solutions of either Cu(II) or Ga(III) and Na2H2EDTA using Gran plotting.[41]
Complex formation equilibria of either Ga(III) or Cu(II) with H2L^1 were studied using two different methods. […] The pH in the most acidic samples was calculated from the H^+ concentration when the pH was below the electrode threshold. From very acidic pH, both Cu(II) and Ga(III) complexes formed, and the first protonated complex species ([Cu(H3L^1)]^3+ and [Ga(H2L^1)]^3+) were determined through the fitting of these experiments with the HypSpec2014 program[42] […]

[4] = cited from earlier work; remark: listed apart in the source
[5] = Complex formation equilibria with Ga(III) (potentiometric–spectrophotometric and in-batch acidic UV titrations); format: physicochemical; conditions: for pGa, corrected value: from corrected log KML, [L] = 10 μM, [M] = 1 μM, pH = 7.4; for log KML (M = Ga^3+), corrected value: refit of potentiometric curve in competition with [Ga(OH)4]−, I = 0.15 M NaCl, 25 °C (Supporting Information)
Experimental: Protonation constants and metal stability constants were determined through a multitechnique approach. Combined potentiometric–spectrophotometric titrations were carried out using a Metrohm Titrando 809 equipped with a Ross combined electrode and a Metrohm Dosino 800. The glass cell containing the solutions to be titrated was maintained at a constant temperature, 25 °C, and connected with an inlet–outlet tube for nitrogen gas (purified through a 10% NaOH solution) to exclude CO2 prior to and during the titration. […] The calibrations involved HCl standard being titrated with carbonate-free titrant NaOH(aq) (0.15 M), and the ionic strength was maintained constant to 0.16 M by the addition of a NaCl solution. The NaOH was previously standardized against freshly dried potassium hydrogen phthalate crystals. Copper and gallium metal-ion solutions used in metal complexation experiments were prepared by the dilution of AA standards. The exact amount of acid present was determined by the titration of equimolar solutions of either Cu(II) or Ga(III) and Na2H2EDTA using Gran plotting.[41]
Complex formation equilibria of either Ga(III) or Cu(II) with H2L^1 were studied using two different methods. […] The pH in the most acidic samples was calculated from the H^+ concentration when the pH was below the electrode threshold. From very acidic pH, both Cu(II) and Ga(III) complexes formed, and the first protonated complex species ([Cu(H3L^1)]^3+ and [Ga(H2L^1)]^3+) were determined through the fitting of these experiments with the HypSpec2014 program[42] (Figures S50–S52 and S56–S58 and Table S3). […] Dissociation constants corresponding to the hydrolysis of Ga(III) and Cu(II) aqueous ions included in the calculations were taken from Baes and Mesmer.[46] Complexation of H2L^1 with Ga(III) was further corroborated by the findings of ^1H NMR experiments at different pD values (Figures 3 and S26). Similarly, complexation of H2L^2 with Cu(II) or Ga(III) was studied by in-batch acidic UV experiments in a set of solutions prepared with the experimental conditions [H2L^2] = [Ga^3+] = 1 × 10^–4 M; [H2L^2] = [Cu^2+] = 7 × 10^–4 M, and the pH was adjusted by the addition of different amounts of standardized HCl. The ionic strength was maintained constant at 0.16 M when possible by the addition of NaCl. The first-formed complex species ([Cu(HL^2)]^+, [CuL^2], and [GaL^2]^+) were determined through fitting of the experimental data (Figures S53–S55 and S59–S61 and Table S3). […]

[6] = Protonation constants by combined potentiometric–spectrophotometric, in-batch acidic UV and 1H NMR titrations; format: physicochemical; conditions: 25 °C, I = 0.16 M NaCl
Experimental: Protonation constants and metal stability constants were determined through a multitechnique approach. Combined potentiometric–spectrophotometric titrations were carried out using a Metrohm Titrando 809 equipped with a Ross combined electrode and a Metrohm Dosino 800. The glass cell containing the solutions to be titrated was maintained at a constant temperature, 25 °C, and connected with an inlet–outlet tube for nitrogen gas (purified through a 10% NaOH solution) to exclude CO2 prior to and during the titration. Daily electrode calibrations were carried out at proton ion concentration, and the results were analyzed with the Gran[41] procedure to obtain the standard potential (E°) and the ionic product of water pKw at T = 25 °C and I = 0.16 M NaCl. The calibrations involved HCl standard being titrated with carbonate-free titrant NaOH(aq) (0.15 M), and the ionic strength was maintained constant to 0.16 M by the addition of a NaCl solution. The NaOH was previously standardized against freshly dried potassium hydrogen phthalate crystals. Copper and gallium metal-ion solutions used in metal complexation experiments were prepared by the dilution of AA standards. The exact amount of acid present was determined by the titration of equimolar solutions of either Cu(II) or Ga(III) and Na2H2EDTA using Gran plotting.[41]
Protonation equilibria of either H2L^1 or H2L^2 were studied by titrations of solutions containing [H2L^1] = 9.56 × 10^–4 M or [H2L^2] = 5.87 × 10^–4 M at 25 °C and 0.16 M NaCl ionic strength using a potentiometric–spectrophotometric procedure. In each titration (100–150 equilibrium points and pH range 2–11), the electromotive force values were recorded after 2 min of each NaOH addition and the spectrophotometer was synchronized to obtain a UV spectrum for each pH data point. Spectra were recorded in the 200–400 nm wavelength range with a 0.2-cm-path-length optic dip probe connected to a Varian Cary 60 UV–vis spectrophotometer. The obtained spectrophotometric and potentiometric data were analyzed with HypSpec2014([42]) and HyperQuad2013([43]) to obtain the protonation constants and molar absorptivities of the different absorbing species of the ligands (Table 3 and Figures S42–S49 and S51B). […] Additional ^1H NMR titrations were carried out for H2L^1 to better understand the protonation sequence and their assignments (Figures S45 and S46). A set of H2L^1 solutions (4 × 10^–3 M) in D2O were prepared by the addition of DCl or NaOD, and their ^1H NMR spectra were recorded. The pH values of the samples were then measured with a microelectrode (Mettler Toledo), which was calibrated daily at H^+ concentration as described above. The pH was corrected for the deuterium isotopic effect (pD = pHreading + 0.4).[44]

[7] = Table S4 footnote f, ref 8 (SI)
[8] = Table S4 footnote c, ref 5 (SI)
[9] = Table S4 footnote d, ref 6 (SI)
[10] = Table S4 footnote e, ref 7 (SI)

## O=C(O)CN1CCN(CC(=O)O)CCN(CC(=O)O)CCN(CC(=O)O)CC1 [DOTA, 1,4,7,10-tetraazacyclododecane-1,4,7,10-tetraacetic acid]
[1]
  log KML (M = Cu^2+): 22.21(1) ^f
[2]
  log KML (M = Ga^3+): 21.33 ^g
[3]
  pCu: 16.2
[4]; [7]
  log KHqL, H2L + H+ ⇆ H3L: 4.548 (3)
  log KHqL, H3L + H+ ⇆ H4L: 4.130 (3)
  log KHqL, HL + H+ ⇆ H2L: 9.680 (1)
  log KHqL, L + H+ ⇆ HL: 12.09 (4)
  ∑log KHqL: 30.448

## O=C([O-])CN1CCN(CC(=O)[O-])CCN(CC(=O)[O-])CCN(CC(=O)[O-])CC1.[Ga+3] [Ga^III-DOTA]
[2]
  pGa: 18.5
  log KML (M = Ga^3+): 21.33

## O=C(O)c1cccc(CNCCNCc2cccc(C(=O)O)n2)n1 [H2dedpa, 1,2-bis[[(6-carboxypyridin-2-yl)methyl]amino]ethane]
[5]
  pGa, corrected value: 22.2 ^e
  log KML (M = Ga^3+), corrected value: 22.9(1) ^e
[1]
  log KML (M = Cu^2+): 19.16(5) ^d
[1]; −log [Mfree] at [L] = 10 μM, [M] = 1 μM, pH = 7.4
  pCu: 18.5 ^d
[4]; [8]
  log KHqL, H2L + H+ ⇆ H3L: 3.04
  log KHqL, H3L + H+ ⇆ H4L: 2.59
  log KHqL, HL + H+ ⇆ H2L: 6.31
  log KHqL, L + H+ ⇆ HL: 9.00
[4]; [9]
  log KHqL, H2L + H+ ⇆ H3L: 3.08 (2)
  log KHqL, H3L + H+ ⇆ H4L: 2.33 (3)
  log KHqL, HL + H+ ⇆ H2L: 6.18 (2)
  log KHqL, L + H+ ⇆ HL: 8.69 (1)

## O=C(O)CN1CCN(CC(=O)O)CCN(CC(=O)O)CC1 [NOTA, 1,4,7-triazacyclononane-1,4,7-triacetic acid]
[1]
  log KML (M = Cu^2+): 21.6 ^d
[2]
  pGa: 27.9 ^g
  log KML (M = Ga^3+): 30.98 ^g
[3]
  pCu: 19.2
[4]; [10]
  log KHqL, H2L + H+ ⇆ H3L: 3.163(3)
  log KHqL, H3L + H+ ⇆ H4L: 1.955(3)
  log KHqL, HL + H+ ⇆ H2L: 6.032(4)
  log KHqL, L + H+ ⇆ HL: 10.773(7)
  ∑log KHqL: 21.923

## O=C([O-])c1cccc(CNCCNCc2cccc(C(=O)[O-])n2)n1.[Ga+3] [[Ga(dedpa)]^+]
[5]
  pGa, corrected value: 22.2
  log KML (M = Ga^3+), corrected value: 22.9(1)
[2]
  log KML (M = Ga^3+): 28.11(8)

## N,N′-Bis(3-aminopropyl)-N,N′-bis(6-carboxypyridin-2-yl)-1,2-diaminoethane [H2L^1]
[6]
  log KHqL, H2L + H+ ⇆ H3L (log K3): 6.78
  log KHqL, H3L + H+ ⇆ H4L (log K4): 4.23
  log KHqL, H4L + H+ ⇆ H5L (log K5): 2.79
  log KHqL, H5L + H+ ⇆ H6L (log K6): 2.01
  log KHqL, HL + H+ ⇆ H2L (log K2): 9.91
  log KHqL, L + H+ ⇆ HL (log K1): 10.86
